According to patent US6407233B1, “Halogen pyrimidines and its use thereof as parasite abatement means” (Bayer Aktiengesellschaft, priority 1996, dated 2002):

Key:
[1] = test system: Fusarium nivale var. majus; test: Fusarium nivale (var. majus) test (wheat)/protective; details: protective, application rate 250 g/ha, evaluated 4 days after inoculation
[2] = test system: Pseudocercosporella herpotrichoides; test: Pseudocercosporella herpotrichoides test (wheat)/protective; type: in vivo; details: protective, application rate 250 g/ha, evaluated 21 days after inoculation
Protocol: The test is evaluated 21 days after inoculation.

[3] = test system: Fusarium nivale var. nivale; test: Fusarium nivale (var. nivale) test (wheat)/curative; details: curative (sprayed 24 hours after inoculation), application rate 250 g/ha, evaluated 4 days after inoculation
[4] = test system: Fusarium nivale var. nivale; test: Fusarium nivale (var. nivale) test (wheat)/protective; details: protective, application rate 250 g/ha, evaluated 4 days after inoculation
[5] = test system: Erysiphe graminis f.sp. hordei; test: Erysiphe test (barley)/protective; type: in vivo; details: protective, application rate 250 g/ha, evaluated 7 days after inoculation
Protocol: The test is evaluated 7 days after the inoculation.

[6] = test system: Erysiphe graminis f.sp. hordei; test: Erysiphe test (barley)/curative; type: in vivo; details: curative (sprayed 48 hours after inoculation), application rate 250 g/ha, evaluated 7 days after inoculation

With CON=C(C1=NOCCO1)c1ccccc1Oc1ncnc(Oc2cccc3c2CC(C)(C)O3)c1F [Example 42] the “efficacy in comparison with the untreated control” value (“efficacy in comparison” for short) [1] was 100%.
With CON=C(C1=NOCCO1)c1ccccc1Oc1ncnc(Oc2ccccc2OCc2ccccc2)c1F [Example 33] the “efficacy in comparison” value [1] was 100%.
With CON=C(C1=NOCCO1)c1ccccc1Oc1ncnc(Oc2ccccc2Cn2cncn2)c1F [Example 71] the “efficacy in comparison” value [2] was 100%.
CCCc1ccccc1Oc1ncnc(Oc2ccccc2C(=NOC)C2=NOCCO2)c1F [Example 34] was tested, and the “efficacy in comparison” value [3] was 100% and the “efficacy in comparison” value [4] was 100%.
CON=C(C1=NOCCO1)c1ccccc1Oc1ncnc(Oc2ccccc2C(=O)NCc2ccccc2)c1F [Example 69] was tested, and the “efficacy in comparison” value [2] was 100%.
C=C(C)Cc1ccccc1Oc1ncnc(Oc2ccccc2C(=NOC)C2=NOCCO2)c1F [Example 31] was tested, and the “efficacy in comparison” value [3] was 100%.
For CON=C(C1=NOCCO1)c1ccccc1Oc1ncnc(Oc2ccccc2C2OCC(C)(C)CO2)c1F [Example 59], the “efficacy in comparison” value [5] was 100%.
In the case of CON=C(C1=NOCCO1)c1ccccc1Oc1ncnc(Oc2cc(C)cc(C)c2C)c1F [Example 14], the “efficacy in comparison” value [1] is reported as 100%.
With CO/N=C(/C1=NOCCO1)c1ccccc1Oc1ncnc(Oc2ccccc2Cl)c1F [Example 1, 3-{1-[2-(4-<2-chlorophenoxy>-5-fluoropyrimid-6-yloxy)-phenyl]-1-(methoximino)-methyl}-5,6-dihydro-1,4,2-dioxazine] the “efficacy in comparison” value [6] was 100%.
